Test results reported in article PMC5814754, “Quantitative, Wide-Spectrum Kinase Profiling in Live Cells for Assessing the Effect of Cellular ATP on Target Engagement” (Cell Chemical Biology, 2018).

Experiments:
Assay in all cases: NanoBRET single-dose fractional occupancy profiling of kinase/Nluc library in live HEK293 cells (Table S1)
Assay type in all cases: binding
Set-up in all cases: Occupancy, % Replicate 1 / Occupancy, % Replicate 2: unit of the concentration uncertain
178 full-length kinases [1] = target: 178 full-length kinases (Homo sapiens, UniProt Q9H0K1); conditions: SNF1LK2 (NP_056006), Nluc orientation N, probe 6 at 0.1 (unit uncertain)
178 full-length kinases (Homo sapiens, UniProt Q9H0K1), sequence (Q9H0K1 whole entry): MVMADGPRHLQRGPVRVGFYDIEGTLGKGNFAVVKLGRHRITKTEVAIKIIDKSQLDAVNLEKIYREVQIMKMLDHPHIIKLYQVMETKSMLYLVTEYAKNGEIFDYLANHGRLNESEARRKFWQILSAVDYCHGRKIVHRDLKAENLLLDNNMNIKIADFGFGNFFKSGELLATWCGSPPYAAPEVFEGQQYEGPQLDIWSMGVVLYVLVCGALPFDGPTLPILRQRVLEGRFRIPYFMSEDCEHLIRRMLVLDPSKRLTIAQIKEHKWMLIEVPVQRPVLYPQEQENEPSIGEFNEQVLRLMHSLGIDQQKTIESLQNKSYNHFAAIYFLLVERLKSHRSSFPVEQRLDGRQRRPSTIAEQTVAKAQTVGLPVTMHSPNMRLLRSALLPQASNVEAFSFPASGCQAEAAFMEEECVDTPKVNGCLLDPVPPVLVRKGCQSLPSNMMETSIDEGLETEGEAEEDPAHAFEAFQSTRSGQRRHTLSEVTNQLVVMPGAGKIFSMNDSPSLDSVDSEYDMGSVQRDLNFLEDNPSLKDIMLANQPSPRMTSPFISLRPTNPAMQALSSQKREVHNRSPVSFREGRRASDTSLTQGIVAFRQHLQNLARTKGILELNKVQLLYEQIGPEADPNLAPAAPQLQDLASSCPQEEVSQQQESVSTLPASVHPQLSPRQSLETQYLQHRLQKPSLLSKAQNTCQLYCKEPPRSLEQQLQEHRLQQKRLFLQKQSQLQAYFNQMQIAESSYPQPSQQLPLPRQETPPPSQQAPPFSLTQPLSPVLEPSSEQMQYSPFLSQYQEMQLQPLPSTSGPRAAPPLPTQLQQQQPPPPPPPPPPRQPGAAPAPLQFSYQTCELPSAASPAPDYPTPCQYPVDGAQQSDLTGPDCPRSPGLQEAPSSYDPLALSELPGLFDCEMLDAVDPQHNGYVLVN

178 full-length kinases [2] = target: 178 full-length kinases (Homo sapiens, UniProt P27037); conditions: ACVR2A, Nluc C, probe 2 at 1 (unit uncertain)
178 full-length kinases [3] = target: 178 full-length kinases (Homo sapiens, UniProt Q8IVW4); conditions: CDKL3, Nluc N, probe 1 at 0.05 (unit uncertain)
178 full-length kinases [4] = target: 178 full-length kinases (Homo sapiens, UniProt Q92772); conditions: CDKL2, Nluc N, probe 1 at 0.1 (unit uncertain)
178 full-length kinases (Homo sapiens, UniProt Q92772), sequence (Q92772 whole entry): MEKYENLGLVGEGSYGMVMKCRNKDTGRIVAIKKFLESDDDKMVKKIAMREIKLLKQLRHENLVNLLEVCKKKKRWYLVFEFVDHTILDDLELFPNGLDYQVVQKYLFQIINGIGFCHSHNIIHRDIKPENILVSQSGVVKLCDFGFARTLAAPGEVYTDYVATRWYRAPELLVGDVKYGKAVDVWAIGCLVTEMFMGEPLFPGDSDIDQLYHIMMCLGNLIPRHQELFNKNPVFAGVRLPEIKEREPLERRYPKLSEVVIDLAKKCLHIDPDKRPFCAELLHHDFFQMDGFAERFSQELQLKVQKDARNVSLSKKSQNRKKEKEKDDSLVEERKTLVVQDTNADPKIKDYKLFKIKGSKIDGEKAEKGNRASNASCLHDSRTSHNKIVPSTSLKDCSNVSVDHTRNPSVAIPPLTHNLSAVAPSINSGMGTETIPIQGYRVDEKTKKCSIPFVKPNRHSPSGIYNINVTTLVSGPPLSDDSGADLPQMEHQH

178 full-length kinases [5] = target: 178 full-length kinases (Homo sapiens, UniProt P30291); conditions: WEE1 (NP_003381), Nluc orientation C, probe 5 at 0.05 (unit uncertain)
178 full-length kinases [6] = target: 178 full-length kinases (Homo sapiens, UniProt P52333); conditions: JAK3, Nluc C, probe 5 at 1 (unit uncertain)
178 full-length kinases [7] = target: 178 full-length kinases (Homo sapiens, UniProt O96013); conditions: PAK4, Nluc C, probe 5 at 1 (unit uncertain)
178 full-length kinases [8] = target: 178 full-length kinases (Homo sapiens, UniProt Q13237); conditions: PRKG2, Nluc C, probe 5 at 1 (unit uncertain)
178 full-length kinases [9] = target: 178 full-length kinases (Homo sapiens, UniProt P53779); conditions: JNK3, Nluc C, probe 5 at 1 (unit uncertain)
178 full-length kinases [10] = target: 178 full-length kinases (Homo sapiens, UniProt P31749); conditions: AKT1, Nluc C, probe 5 at 1 (unit uncertain)
178 full-length kinases (Homo sapiens, UniProt P31749), sequence (P31749 whole entry): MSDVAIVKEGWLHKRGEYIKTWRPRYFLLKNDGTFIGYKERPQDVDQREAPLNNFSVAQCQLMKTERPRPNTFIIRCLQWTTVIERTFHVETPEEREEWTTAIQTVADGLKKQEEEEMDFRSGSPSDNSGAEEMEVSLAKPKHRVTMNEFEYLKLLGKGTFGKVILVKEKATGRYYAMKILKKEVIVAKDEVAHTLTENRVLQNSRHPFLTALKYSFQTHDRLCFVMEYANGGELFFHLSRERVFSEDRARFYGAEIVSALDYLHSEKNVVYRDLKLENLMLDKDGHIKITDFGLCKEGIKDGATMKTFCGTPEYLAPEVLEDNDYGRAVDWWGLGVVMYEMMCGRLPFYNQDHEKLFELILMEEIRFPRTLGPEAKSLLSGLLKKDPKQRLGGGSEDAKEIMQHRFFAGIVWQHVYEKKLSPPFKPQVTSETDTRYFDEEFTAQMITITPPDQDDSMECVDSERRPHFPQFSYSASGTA

178 full-length kinases [11] = target: 178 full-length kinases (Homo sapiens, UniProt P36896); conditions: ACVR1B, Nluc C, probe 5 at 1 (unit uncertain)
178 full-length kinases [12] = target: 178 full-length kinases (Homo sapiens, UniProt Q8IYT8); conditions: ULK2 (NP_001136082), Nluc orientation N, probe 5 at 1 (unit uncertain)
178 full-length kinases (Homo sapiens, UniProt Q8IYT8), sequence (Q8IYT8 whole entry): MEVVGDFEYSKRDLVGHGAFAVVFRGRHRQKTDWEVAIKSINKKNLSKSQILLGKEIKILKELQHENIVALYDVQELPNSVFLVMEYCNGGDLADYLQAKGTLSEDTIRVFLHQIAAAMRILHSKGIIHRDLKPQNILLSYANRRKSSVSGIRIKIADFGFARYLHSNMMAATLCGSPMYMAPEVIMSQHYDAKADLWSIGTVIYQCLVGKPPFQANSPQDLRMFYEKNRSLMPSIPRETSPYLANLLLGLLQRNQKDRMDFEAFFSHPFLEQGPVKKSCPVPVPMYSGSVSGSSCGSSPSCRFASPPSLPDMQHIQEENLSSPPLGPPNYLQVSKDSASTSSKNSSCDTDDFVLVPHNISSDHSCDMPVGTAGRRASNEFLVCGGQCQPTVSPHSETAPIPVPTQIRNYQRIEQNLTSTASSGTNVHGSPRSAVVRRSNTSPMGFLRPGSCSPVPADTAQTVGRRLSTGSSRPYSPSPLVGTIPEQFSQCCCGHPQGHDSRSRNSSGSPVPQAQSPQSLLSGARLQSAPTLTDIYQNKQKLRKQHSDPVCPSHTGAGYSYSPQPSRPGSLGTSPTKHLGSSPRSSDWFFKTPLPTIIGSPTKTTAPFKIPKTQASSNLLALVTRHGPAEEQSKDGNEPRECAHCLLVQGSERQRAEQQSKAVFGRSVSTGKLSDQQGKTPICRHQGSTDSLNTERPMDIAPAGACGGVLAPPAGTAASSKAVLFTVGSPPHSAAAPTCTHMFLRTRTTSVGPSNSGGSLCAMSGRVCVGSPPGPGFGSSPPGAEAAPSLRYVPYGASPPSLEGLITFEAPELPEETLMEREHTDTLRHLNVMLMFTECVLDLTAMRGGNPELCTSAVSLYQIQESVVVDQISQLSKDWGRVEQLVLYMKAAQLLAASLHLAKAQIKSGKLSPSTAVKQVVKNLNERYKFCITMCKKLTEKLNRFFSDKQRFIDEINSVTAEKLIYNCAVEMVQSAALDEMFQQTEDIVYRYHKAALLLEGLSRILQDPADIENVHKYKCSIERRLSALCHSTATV

178 full-length kinases [13] = target: 178 full-length kinases (Homo sapiens, UniProt Q9P286); conditions: PAK7, Nluc C, probe 5 at 1 (unit uncertain)
178 full-length kinases (Homo sapiens, UniProt Q9P286), sequence (Q9P286 whole entry): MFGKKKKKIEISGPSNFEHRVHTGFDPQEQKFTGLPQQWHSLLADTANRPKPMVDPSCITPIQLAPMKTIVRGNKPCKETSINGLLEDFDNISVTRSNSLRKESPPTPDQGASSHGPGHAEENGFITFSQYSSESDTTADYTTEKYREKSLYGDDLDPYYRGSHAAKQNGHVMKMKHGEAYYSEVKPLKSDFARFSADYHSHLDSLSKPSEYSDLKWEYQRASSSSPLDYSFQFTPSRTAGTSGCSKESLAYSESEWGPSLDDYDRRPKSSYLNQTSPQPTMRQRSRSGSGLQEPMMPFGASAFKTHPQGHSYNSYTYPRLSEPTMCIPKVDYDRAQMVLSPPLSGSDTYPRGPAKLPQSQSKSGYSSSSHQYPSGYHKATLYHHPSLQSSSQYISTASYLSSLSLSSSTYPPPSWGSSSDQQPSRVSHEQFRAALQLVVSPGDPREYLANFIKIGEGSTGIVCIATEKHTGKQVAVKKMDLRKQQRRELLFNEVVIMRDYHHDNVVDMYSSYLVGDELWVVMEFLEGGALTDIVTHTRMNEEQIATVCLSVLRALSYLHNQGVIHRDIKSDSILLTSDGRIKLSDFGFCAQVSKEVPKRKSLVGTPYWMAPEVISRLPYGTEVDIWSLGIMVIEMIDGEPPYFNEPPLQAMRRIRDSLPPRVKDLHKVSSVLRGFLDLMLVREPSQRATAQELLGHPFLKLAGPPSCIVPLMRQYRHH

178 full-length kinases [14] = target: 178 full-length kinases (Homo sapiens, UniProt Q16539); conditions: MAPK14, Nluc C, probe 6 at 0.1 (unit uncertain)
178 full-length kinases (Homo sapiens, UniProt Q16539), sequence (Q16539 whole entry): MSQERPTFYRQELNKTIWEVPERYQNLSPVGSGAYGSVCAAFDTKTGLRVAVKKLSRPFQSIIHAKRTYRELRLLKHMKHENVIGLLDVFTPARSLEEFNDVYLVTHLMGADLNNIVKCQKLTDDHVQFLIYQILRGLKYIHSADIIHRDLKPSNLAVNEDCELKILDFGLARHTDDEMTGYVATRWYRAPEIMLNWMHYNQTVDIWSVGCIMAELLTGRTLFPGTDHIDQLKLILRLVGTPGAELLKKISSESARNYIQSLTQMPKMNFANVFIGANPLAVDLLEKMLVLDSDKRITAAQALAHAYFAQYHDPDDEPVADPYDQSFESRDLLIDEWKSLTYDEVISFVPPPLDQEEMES

178 full-length kinases [15] = target: 178 full-length kinases (Homo sapiens, UniProt O76039); conditions: CDKL5, Nluc N, probe 5 at 1 (unit uncertain)
178 full-length kinases (Homo sapiens, UniProt O76039), sequence (O76039 whole entry): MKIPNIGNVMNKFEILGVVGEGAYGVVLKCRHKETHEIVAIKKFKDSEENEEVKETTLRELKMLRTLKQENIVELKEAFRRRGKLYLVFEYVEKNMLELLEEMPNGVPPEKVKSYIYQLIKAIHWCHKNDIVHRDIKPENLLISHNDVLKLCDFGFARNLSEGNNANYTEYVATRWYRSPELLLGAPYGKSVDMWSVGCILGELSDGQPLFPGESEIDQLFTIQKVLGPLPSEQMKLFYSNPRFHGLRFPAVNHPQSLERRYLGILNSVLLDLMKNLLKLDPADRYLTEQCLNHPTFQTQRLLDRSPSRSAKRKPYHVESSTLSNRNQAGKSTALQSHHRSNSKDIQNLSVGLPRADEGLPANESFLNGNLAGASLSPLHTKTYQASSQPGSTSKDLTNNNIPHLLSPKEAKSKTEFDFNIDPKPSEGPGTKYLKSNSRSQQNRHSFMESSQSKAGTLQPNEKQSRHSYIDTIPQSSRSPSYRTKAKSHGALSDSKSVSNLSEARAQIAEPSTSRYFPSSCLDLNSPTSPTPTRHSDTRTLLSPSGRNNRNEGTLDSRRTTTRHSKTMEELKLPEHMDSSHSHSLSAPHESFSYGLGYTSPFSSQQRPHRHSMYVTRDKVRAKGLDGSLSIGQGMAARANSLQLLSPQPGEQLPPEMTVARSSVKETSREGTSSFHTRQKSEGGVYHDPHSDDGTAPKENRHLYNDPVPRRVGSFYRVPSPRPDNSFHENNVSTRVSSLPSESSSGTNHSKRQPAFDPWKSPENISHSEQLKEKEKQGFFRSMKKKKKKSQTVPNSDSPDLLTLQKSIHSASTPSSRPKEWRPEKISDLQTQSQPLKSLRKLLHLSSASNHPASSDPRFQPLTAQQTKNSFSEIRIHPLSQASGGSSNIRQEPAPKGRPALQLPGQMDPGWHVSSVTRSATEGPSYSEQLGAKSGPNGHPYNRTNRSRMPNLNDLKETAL

178 full-length kinases [16] = target: 178 full-length kinases (Homo sapiens, UniProt Q96L34); conditions: MARK4, Nluc N, probe 5 at 1 (unit uncertain)
178 full-length kinases [17] = target: 178 full-length kinases (Homo sapiens, UniProt P54646); conditions: PRKAA2, Nluc N, probe 5 at 0.5 (unit uncertain)
178 full-length kinases [18] = target: 178 full-length kinases (Homo sapiens, UniProt Q16832); conditions: DDR2, Nluc C, probe 6 at 0.1 (unit uncertain)

C[C@@H](Oc1cc(-c2cnn(C3CCNCC3)c2)cnc1N)c1c(Cl)ccc(F)c1Cl [Crizotinib]
No Binding: Occupancy, % Replicate 1 (178 full-length kinases [1]; replicate 1) | Occupancy, % Replicate 2 (178 full-length kinases [1]; replicate 2) | Occupancy, % Replicate 1 (178 full-length kinases [2]) | Occupancy, % Replicate 2 (178 full-length kinases [2]) | Occupancy, % Replicate 1 (178 full-length kinases [3]) | Occupancy, % Replicate 2 (178 full-length kinases [3]) | Occupancy, % Replicate 1 (178 full-length kinases [4]) | Occupancy, % Replicate 2 (178 full-length kinases [4]) | Occupancy, % Replicate 1 (178 full-length kinases [5]; replicate 1) | Occupancy, % Replicate 2 (178 full-length kinases [5]; replicate 2) | Occupancy, % Replicate 2 (178 full-length kinases [6]) | Occupancy, % Replicate 2 (178 full-length kinases [7]) | Occupancy, % Replicate 2 (178 full-length kinases [8]) | Occupancy, % Replicate 1 (178 full-length kinases [9]) | Occupancy, % Replicate 2 (178 full-length kinases [9]) | Occupancy, % Replicate 1 (178 full-length kinases [10]) | Occupancy, % Replicate 2 (178 full-length kinases [10]) | Occupancy, % Replicate 2 (178 full-length kinases [11]) | Occupancy, % Replicate 1 (178 full-length kinases [12]; replicate 1) | Occupancy, % Replicate 2 (178 full-length kinases [12]; replicate 2) | Occupancy, % Replicate 1 (178 full-length kinases [13]) | Occupancy, % Replicate 2 (178 full-length kinases [13]) | Occupancy, % Replicate 1 (178 full-length kinases [14]) | Occupancy, % Replicate 2 (178 full-length kinases [14]) | Occupancy, % Replicate 1 (178 full-length kinases [15]) | Occupancy, % Replicate 2 (178 full-length kinases [15]) | Occupancy, % Replicate 1 (178 full-length kinases [16]) | Occupancy, % Replicate 2 (178 full-length kinases [16]) | Occupancy, % Replicate 1 (178 full-length kinases [17]) | Occupancy, % Replicate 2 (178 full-length kinases [17]) | Occupancy, % Replicate 1 (178 full-length kinases [18])
